Measurements reported in patent US8575210B2, “Use of indole derivatives as NURR-1 activators for treating parkinson's disease” (Laboratoires Fournier SA, priority 2008, dated 2013).

Tests used:
[1] = biological target: T1, hNurr1_RXRαFL (NURR-1/RXRα heterodimer) (Homo sapiens, UniProt P19793); test: Transactivation assay, NURR-1-Gal4/RXRα luciferase reporter in Cos-7 cells; format: cell-based; details: for Emax: COS-7, level of induction relative to XCT0135908 at 2×10^-5 M = 100%, read-out: Eff hNurr1_RXRαFL (efficacy relative to the reference XCT0135908); for EC50: Cos-7 cells, Gal4 luciferase reporter
T1 construct: hNurr1_RXRαFL
T1 sequence (P43354 328-598): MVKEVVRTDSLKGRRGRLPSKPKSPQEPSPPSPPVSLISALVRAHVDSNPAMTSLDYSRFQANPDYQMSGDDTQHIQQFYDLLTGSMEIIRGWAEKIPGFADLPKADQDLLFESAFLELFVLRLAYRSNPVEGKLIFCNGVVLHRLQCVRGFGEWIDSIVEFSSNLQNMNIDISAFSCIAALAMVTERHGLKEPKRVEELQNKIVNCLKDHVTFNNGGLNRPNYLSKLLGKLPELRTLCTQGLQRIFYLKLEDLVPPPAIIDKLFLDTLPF
T1 sequence (P19793 whole entry, the tested form may be a part): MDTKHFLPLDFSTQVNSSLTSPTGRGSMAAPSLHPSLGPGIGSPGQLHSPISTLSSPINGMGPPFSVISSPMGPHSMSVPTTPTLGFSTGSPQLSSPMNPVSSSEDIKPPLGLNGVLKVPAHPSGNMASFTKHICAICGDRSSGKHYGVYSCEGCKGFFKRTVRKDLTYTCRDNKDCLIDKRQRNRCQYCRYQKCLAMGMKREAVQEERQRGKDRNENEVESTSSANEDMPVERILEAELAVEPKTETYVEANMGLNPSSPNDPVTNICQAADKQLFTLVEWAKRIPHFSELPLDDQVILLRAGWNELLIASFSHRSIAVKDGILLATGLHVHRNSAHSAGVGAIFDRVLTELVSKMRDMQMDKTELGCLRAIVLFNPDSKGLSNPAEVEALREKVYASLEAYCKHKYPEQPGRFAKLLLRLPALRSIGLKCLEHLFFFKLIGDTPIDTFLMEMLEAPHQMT
Protocol: (§1) To start with, using an in vitro assay, the capacity of the compounds according to the invention to behave as an activator of the heterodimers formed by the NURR-1 nuclear receptor and the RXR nuclear receptors was measured.
(§2) A transactivation assay was used as a primary screening test. Cos-7 cells were co-transfected with a plasmid expressing a chimera of the human receptor NURR-1-Gal4, a plasmid expressing the RXR human receptor (RXRα or RXRγ receptor) and a reporter plasmid 5Gal4pGL3-TK-Luc. The transfections were carried out using a chemical agent (Jet PEI).
(§3) The transfected cells were distributed in 384-well plates and left to stand for 24 hours.
(§4) After 24 hours, the culture medium was changed. The test products were added (final concentration between 10^−4 and 3.10^−10 M) in the culture medium. After incubation overnight, the expression of luciferase was measured after addition of “SteadyGlo” in accordance with the manufacturer's (Promega) instructions.
(§5) 4-[[6-Methyl-2-phenyl-5-(2-propenyl)-4-pyrimidinyl]amino]benzoic acid (called XCT0135908) at 2×10^−5 M (RXR agonist) was used as reference.
(§6) The levels of induction were calculated in relation to the basal activity of each heterodimer. The results were expressed as a percentage of the level of induction relative to the level of induction obtained with the reference (the level of induction of the reference is arbitrarily equal to 100%).

[2] = Cerebral and plasma pharmacokinetic profile after oral administration in mice; format: in vivo, male C57Bl6 mouse; details: oral administration 10 mg/kg in mice; for Kp: male, C57Bl6, mouse, brain/plasma, read-out: Ratio AUCbrain/AUCplasma; for AUCbrain: AUC0-t, up to 8 h
Protocol: The protocol used was as follows:
Male C57Bl6 mice (25-30 g) from Janvier, Le Genest-St-Isle, France, were used for this study (12 mice per dose).
The animals were fed with standard rodent feed (Purina Mills, St. Louis, Mo.), and were placed in cages and subjected to 12 h/12 h light/dark cycles, the room temperature being maintained at 22±2° C. and the humidity level at 55±10%.
The mice were not fasted before administration. Water was supplied ad libitum throughout the study.
The test compound was administered orally at 10 mg/kg.
For oral administration at 10 mg/kg, the animals were fed by gavage with 10 mL/kg of a suspension of the test compound, prepared in 1% methylcellulose 400 cp.
The animals were sacrificed under anaesthesia at times 15 min, 30 min, 1 h, 3 h, 6 h and 8 h after gavage.
At each time, and on each sacrificed animal, the blood was collected and the brain was removed.
1 mL of blood collected in 1.5 mL tubes containing 20 μL of evaporated anticoagulant (solution of sodium heparinate at 1000 UI/mL) was centrifuged at 4500 g for 3 min to give approximately 400 μL of plasma. The plasma was divided into 2 aliquots of 200 μL, which were stored at −20° C. until extraction by protein precipitation, followed by analysis by liquid chromatography coupled with tandem mass spectrometry (LC-MS/MS) for the quantification of the test compound.
Immediately after their removal, the brains were plunged into liquid nitrogen and then stored at −20° C. for analysis. The brains were subsequently ground in the presence of aqueous/organic solvent mixture to give a homogenate. These homogenates were subsequently centrifuged and the test compound was extracted from the resulting supernatant, by liquid-liquid extraction, and then quantified by LC-MS/MS.
The pharmacokinetic parameters were determined on the basis of a non-compartmental approach in Excel. The area under the curve (AUC0-t) was determined by the linear trapezoidal method.

[3] = tested on: mice treated with 1-methyl-4-phenyl-1,2,3,6-tetrahydropyridine (MPTP); test: Neuroprotection in MPTP-treated mice, striatal dopamine; format: in vivo, male C57BL6/J mice; details: oral, twice daily for 11 days; MPTP 20 or 25 mg/kg i.p. for 5 days; FIGS. 1 to 3
Protocol: The compound of Example 2 was tested on a model of mice treated with 1-methyl-4-phenyl-1,2,3,6-tetrahydropyridine (MPTP), in order to confirm its potential activity. MPTP is a neurotoxin which gives rise to permanent symptoms of Parkinson's disease by destroying certains neurons in the substantia nigra of the brain. The protocol used was as follows.
Male C57BL6/J mice, aged 10-12 weeks at the beginning of the studies, were divided into groups of 8 animals. The compound was administered orally and twice daily for 11 days in total. Administration was commenced 3 days before treatment with the MPTP toxin at 20 or 25 mg/kg. MPTP was administered once daily by intraperitoneal injection for 5 days. The administration of the test compound was continued for 3 days after the treatment with MPTP. One group of mice received the vehicle alone (0.5% methylcellulose solution). The animals were euthanized after the final gavage, and the striatum was removed. The dopamine was extracted from the striatum, and the amount of dopamine (DA), expressed in ng per g of striatum (mean±SEM), was measured by high-performance liquid chromatography (HPLC) with electrochemical detection.
The results obtained were reported in attached FIGS. 1 to 3.

[4] = biological target: T2, hNurr1_RXRγFL (NURR-1/RXRγ heterodimer) (Homo sapiens, UniProt P48443); test: Transactivation assay, NURR-1-Gal4/RXRγ luciferase reporter in Cos-7 cells; format: cell-based; details: for Emax: COS-7, level of induction relative to XCT0135908 at 2×10^-5 M = 100%, read-out: Eff hNurr1_RXRγFL (efficacy relative to the reference XCT0135908); for EC50: Cos-7 cells, Gal4 luciferase reporter
T2 construct: EC50 hNurr1_RXRγFL; other: Cos-7 cells, Gal4 luciferase reporter; other: level of induction relative to XCT0135908 at; hNurr1_RXRγFL
T2 sequence (P48443 whole entry, the tested form may be a part): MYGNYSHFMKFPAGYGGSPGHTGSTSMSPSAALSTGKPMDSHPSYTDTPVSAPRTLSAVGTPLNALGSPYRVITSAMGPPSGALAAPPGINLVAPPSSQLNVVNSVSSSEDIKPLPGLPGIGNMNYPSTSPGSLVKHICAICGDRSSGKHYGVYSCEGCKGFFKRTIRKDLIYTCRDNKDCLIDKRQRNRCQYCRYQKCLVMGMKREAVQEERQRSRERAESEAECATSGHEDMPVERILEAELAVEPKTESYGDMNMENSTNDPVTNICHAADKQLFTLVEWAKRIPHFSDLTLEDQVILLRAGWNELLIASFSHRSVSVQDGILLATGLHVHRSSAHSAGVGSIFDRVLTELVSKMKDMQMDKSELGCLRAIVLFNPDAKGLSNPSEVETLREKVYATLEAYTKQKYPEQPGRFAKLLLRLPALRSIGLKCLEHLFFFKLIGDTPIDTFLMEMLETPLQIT
T2 sequence (P43354 328-598 partner): as the sequence (P43354 328-598) above
Protocol: as §1, §2, §3, §4, §5, §6

Structure (SMILES)	Emax [1]	EC50 [1]	Kp [2]	AUCbrain [2]	Effect on MPTP-induced reduction of dopamine level in the striatum [3]	Emax [4]	EC50 [4]
CC(C)c1cccc(S(=O)(=O)n2c(CCCC(=O)O)cc3cc(C(F)(F)F)ccc32)c1 [Example 2, 1-[[3-(1-Methylethyl)phenyl]sulphonyl]-5-(trifluoromethyl)-1H-indole-2-butanoic acid]	86%	0.073 µM	0.67	3318	reduce, in a dose-dependent way, the action of MPTP	79%	0.113 µM
CC(C)(C)c1cccc(S(=O)(=O)n2c(CCCC(=O)O)cc3cc(C(F)(F)F)ccc32)c1 [Example 8, 1-[[3-(1,1-Dimethylethyl)phenyl]sulphonyl]-5-(trifluoromethyl)-1H-indole-2-butanoic acid]	100%	0.026 µM	0.87	2371	reduce, in a dose-dependent way, the action of MPTP	70%	0.02 µM
CC(C)(C)c1cccc(S(=O)(=O)n2c(CCCCC(=O)O)cc3cc(C(F)(F)F)ccc32)c1 [Example 10, 1-[[3-(1,1-Dimethylethyl)phenyl]sulphonyl]-5-(trifluoromethyl)-1H-indole-2-pentanoic acid]	104%	0.055 µM	0.8	1689	reduce, in a dose-dependent way, the action of MPTP	88%	0.077 µM
